Where “and” joins values, the source holds several entries; their conditions need not be identical. Identical values can stand only once. Like-named read-outs stand apart in the source and are kept apart here. Where a SMILES comes first, the peptide text is derived from it. The star is where a group is joined. Biotin = O=C1N[C@H]2[C@H](CS[C@H]2CCCCC(=O)*)N1
Experiments:
PKC = test: cAMP accumulation with PKC inhibitors in Gαq-overexpressing and untransfected HEK293T cells; type: cell-based, human; conditions: pretreatment with inhibitor 10 μM; fenoterol 10 μM, forskolin 2 μM
Description: (§1) For concentration–response curves with Gαq overexpression as well as the knockdown experiments, transfected and control cells (untransfected or mock short hairpin RNA transfected) were resuspended to equivalent concentration (4 × 10^6 cells/ml) based on Countess II numbers.

β2-AR SPASM sensors = β2-AR SPASM sensors (Homo sapiens, UniProt P07550); test: cAMP accumulation in HEK293T cells expressing β2-AR SPASM sensors (cAMP Glo); type: cell-based; conditions: saturating agonist, normalized to β2-AR-(-), mean; for Emax: HEK-293T, read-out: Maximum cAMP (Emax)
Sequence of β2-AR SPASM sensors (P07550 whole entry, one chain of several): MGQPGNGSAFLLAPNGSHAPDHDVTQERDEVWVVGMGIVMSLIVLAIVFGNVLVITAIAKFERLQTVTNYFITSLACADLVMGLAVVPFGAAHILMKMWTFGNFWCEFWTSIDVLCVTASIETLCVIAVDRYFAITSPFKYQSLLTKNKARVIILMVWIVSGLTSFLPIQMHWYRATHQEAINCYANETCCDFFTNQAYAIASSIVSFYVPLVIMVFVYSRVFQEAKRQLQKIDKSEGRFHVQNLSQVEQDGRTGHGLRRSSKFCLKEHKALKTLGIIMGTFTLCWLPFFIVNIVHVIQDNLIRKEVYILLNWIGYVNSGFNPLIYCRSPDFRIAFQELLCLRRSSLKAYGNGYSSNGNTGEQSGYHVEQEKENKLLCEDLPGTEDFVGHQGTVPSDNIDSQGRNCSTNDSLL
Sequence of β2-AR SPASM sensors (P50148 333-359, one chain of several, further chain): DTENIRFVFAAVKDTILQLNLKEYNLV

endogenous β2-AR = endogenous β2-AR (Homo sapiens, UniProt P07550); test: cell-based; conditions: HEK-293T, with forskolin 2 μM, 10 min, mean ± SD
Sequence of endogenous β2-AR (P07550 whole entry): as the sequence (P07550 whole entry, one chain of several) above
Description: as §1

β2-AR-mCer = target: T1, β2-AR-mCer (Homo sapiens, UniProt P07550); test: affinity pull-down and release (binding-and-release) assay for Gα peptide–β2-AR interaction; conditions: biotinylated peptide 30 μM, β2-mCer 10 nM
T1 construct: expressed in transfected cells; host or cells: native membranes of transiently transfected HEK293T cells
T1 sequence (P07550 whole entry): as the sequence (P07550 whole entry, one chain of several) above
Protocol: Native membranes were prepared from cells expressing β2-mCer and stored in sucrose-supplemented buffer A as described above (Membrane preparations). Membranes were sonicated (3× bursts, 15 s with 1 min pauses) and resuspended in ΔFRET buffer minus Ca^2+ to a concentration of 10 nM receptor based on fluorescence counts. bioQp/bioSp (30 μM) and 100 μM isoproterenol were added and mixed for 5 min. Samples were split into duplicates, one of which was not manipulated in any way to obtain total receptor counts. To the other tube, 20 μl of 0.4 mg/ml streptavidin-coated magnetic beads were added, mixed, and precipitated using a Neodymium disc magnet N52 (20 × 40 mm). Supernatant was removed to a fresh micro-centrifuge tube to monitor fluorescence of receptors not bound to the beads. A solution of 100 μM Qp/Sp was added to the precipitated beads, mixed, and magnetically separated again. The supernatant was collected to determine the released fraction of receptors. Fluorescence of mCer was monitored on a FluoroMax 4 fluorometer (Horiba) using 430 nm excitation (8 nm bandpass) and emission scan from 450 to 500 nm, with the maximum at 475 nm being used for the calculation. Based on total and unbound counts, the amount of receptor bound was calculated (bound = total − unbound) and compared with the counts from the released receptor (% = released/bound). […]

[1] = extent of photocleavage of PC-Qp by MALDI-MS; type: physicochemical
Protocol: Native membranes were prepared from cells expressing β2-mCer and were stored in sucrose-supplemented buffer A as described above (Membrane preparations). […]. Both samples were centrifuged 100,000 × g, 5 min, 4 °C to sediment the membrane. Supernatants were stored on ice for analysis by MS. Control samples containing 50 μM peptide in the buffer were also prepared.
Prior to matrix-assisted laser desorption and ionization time-of-flight MS (MALDI-TOF MS) analysis, the samples were desalted using C18 ZipTips (Millipore Corporation, Billerica, MA). The manufacturer’s standard protocol for peptide clean-up was followed. After elution from the ZipTip, 1 μL of each sample was spotted on a MALDI-TOF 384 spot stainless-steel target (Bruker Daltonics, Billerica, MA) and mixed with 1 μl of α-cyano-4-hydroxy-cinnamic acid (α-CHCA) matrix (15 mg/ml α-CHCA in 50% acetonitrile). Each spot was allowed to dry at room temperature. The target was placed in a Bruker Autoflex Speed MALDI-TOF mass spectrometer (Bruker Daltonics, Billerica, MA) equipped with a Nd-YAG 355 nm pulsed laser. The data were collected in reflectron mode, positive polarity, with an accelerating potential of 19 kV. Each spectrum was the accumulation of 4000 laser shots with complete spot raster of the laser during data collection. External calibration was performed using 0.5 μl α-CHCA and 0.5 μl of peptide standard (part# 206195, Bruker Daltonics, Billerica, MA) with Angiotensin II (monoisotopic mass [MH^+ ] 1046.5418), Angiotensin I (monoisotopic mass [MH^+ ] 1296.6848), SubstanceP (monoisotopic mass [MH^+] 1347.7354), Bombesin (monoisotopic mass [MH^+] 1619.8223), ACTH clip 1–17 (monoisotopic mass [MH^+] 2093.0862), ACTH clip 18–39 (monoisotopic mass [MH^+] 2465.1983), and Somatostatin 28 (monoisotopic mass [MH^+] 3147.4710). The Bruker data files were converted to mzXML files using MSConvertGUI tool in ProteoWizard open-source software. The mzXML files were viewed and analyzed with mMass v5.5 open-source software.

V1A-R with purified Gαq = test: activation of purified Gq (BODIPY-FL-GTPγS) in V1A-R membranes; type: biochemical, human (V1AR); Mus musculus (Gαq); conditions: hotspot swapped peptide vs. parent; vasopressin 100 nM
V1A-R SPASM sensors = test: IP1 levels in HEK293T cells expressing V1A-R SPASM sensors; type: cell-based, human; conditions: hotspot swapped peptide vs. parent; vasopressin 100 nM
Protocol: HEK293T cells expressing the indicated sensor were collected 28–32 h post transfection, to assess IP1 levels using the IP-One HTRF assay kit (Cisbio). Cells were gently resuspended in their original media, counted using a hemocytometer, and centrifuged (300 × g, 3 min). An appropriate volume of StimB buffer (CisBio: 10 mM Hepes, 1 mM CaCl2, 0.5 mM MgCl2, 4.2 mM KCl, 146 mM NaCl, 5.5 mM glucose, 50 mM LiCl, pH 7.4) was added to reach a density of 3 × 10^6 cells/mL. Cells were incubated at 37 °C for 15 min. Cells were subsequently incubated with or without 100 nM of Arg-vasopressin peptide for 5 min at 37 °C. The manufacturer’s protocol was modified to achieve a high signal-to-noise ratio. […] IP1 FRET spectra were collected in top read format using a FlexStation3 plate reader with a delay of 50 μs and an integration time of 300 μs. […] FRET was calculated from ratio of the emission at […] to the emission at 620 nm. […]
Supplementary Figure 1 - Hot-spot substitutions in Gα peptides affect G protein activation and downstream signaling from V1A-R. (a) Activation of G protein (Gαq) is monitored by the increase in BODIPY fluorescence upon agonist stimulation of membranes harvested from HEK293T cells expressing V1A- R, and reconstituted with purified Gαq. […] Statistically significant differences were assessed by a one- way ANOVA, followed by Tukey’s post-ANOVA test. […]

With `CN(C)CCCn1cc(C2=C(c3c[nH]c4ccccc34)C(=O)NC2=O)c2ccccc21` [BimI] the “effect of PKC inhibitor on enhanced cAMP response of Gαq-overexpressing cells” value (PKC) was “did not block the enhanced cAMP response”.

For `CNC[C@H](O)c1ccc(O)c(O)c1` [Epinephrine, epinephrine], the “Maximum cAMP (Emax)” value (β2-AR SPASM sensors; b2-AR-(-) sensor) was 100%, the “Maximum cAMP (Emax)” value (β2-AR SPASM sensors; b2-AR-(Qp) sensor) was 182.89% and the “Maximum cAMP (Emax)” value (β2-AR SPASM sensors; b2-AR-(Sp) sensor) was 197.09%.

For `CC(Cc1ccc(O)cc1)NCC(O)c1cc(O)cc(O)c1` (centres unmarked) [Fenoterol, fenoterol], the Emax (endogenous β2-AR; Gαq overexpressing) was 138 ± 3.15%, the Emax (endogenous β2-AR; untransfected (Un.)) was 94.5 ± 3.05% and the Emax (β2-AR SPASM sensors; b2-AR-(-) sensor) was 97.5%. For the same compound, the Emax (β2-AR SPASM sensors; b2-AR-(Qp) sensor) was 171% and the Emax (β2-AR SPASM sensors; b2-AR-(Sp) sensor) was 131%.

With `COc1ccc2c(c1)c(C1=C(c3c[nH]c4ccccc34)C(=O)NC1=O)cn2CCCN(C)C` [Gö6983] the “effect of PKC inhibitor on enhanced cAMP response of Gαq-overexpressing cells” value (PKC) was “did not block the enhanced cAMP response”.

For `CC[C@H](C)[C@H](NC(=O)[C@H](CC(N)=O)NC(=O)[C@H](CCC(=O)O)NC(=O)[C@@H](NC(=O)[C@H](CC(=O)O)NC(=O)CCCC[C@@H]1SC[C@@H]2NC(=O)N[C@@H]21)[C@@H](C)O)C(=O)N[C@@H](CCCNC(=N)N)C(=O)N[C@@H](CCCNC(=N)N)C(=O)N[C@H](C(=O)N[C@@H](Cc1ccccc1)C(=O)N[C@@H](CC(N)=O)C(=O)N[C@@H](CC(=O)O)C(=O)N[C@@H](CS)C(=O)N[C@@H](CCCNC(=N)N)C(=O)N[C@@H](CC(=O)O)C(=O)N[C@H](C(=O)N[C@H](C(=O)N[C@@H](CCC(N)=O)C(=O)N[C@@H](CCCNC(=N)N)C(=O)N[C@@H](CCSC)C(=O)N[C@@H](Cc1c[nH]cn1)C(=O)N[C@@H](CC(C)C)C(=O)N[C@@H](CCCNC(=N)N)C(=O)N[C@@H](CCC(N)=O)C(=O)N[C@@H](Cc1ccc(O)cc1)C(=O)N[C@@H](CCC(=O)O)C(=O)N[C@@H](CC(C)C)C(=O)N[C@@H](CC(C)C)C(=O)O)[C@@H](C)CC)[C@@H](C)CC)C(C)C` [bioSp] (Biotin-DTENIRRVFNDCRDIIQRMHLRQYELL-OH), the “mean bound (100-Supernatant)” value (β2-AR-mCer; isoproterenol 100 μM, total incl. nonspecific) was 54.8625% and the “receptor specifically pulled down (bound)” value (β2-AR-mCer; nonspecific subtracted, mean) was 45% and 45.31%.

With “N-term fragment: N-terminal fragment generated by photocleavage of PC-Qp (DTENIRFVFAAVKDTILQLNLKE)” the “N-term fragment cleaved (fraction, MALDI-MS)” value ([1]; minus UV, replicate 1) was 0.33, the “N-term fragment cleaved (fraction, MALDI-MS)” value ([1]; minus UV, replicate 2) was 0.24 and the “N-term fragment cleaved (fraction, MALDI-MS)” value ([1]; minus UV, replicate 3) was 0.38. For the same compound, the “N-term fragment cleaved (fraction, MALDI-MS)” value ([1]; plus UV (350 nm, 2 min), replicate 1) was 0.91, the “N-term fragment cleaved (fraction, MALDI-MS)” value ([1]; plus UV (350 nm, 2 min), replicate 2) was 0.91 and the “N-term fragment cleaved (fraction, MALDI-MS)” value ([1]; plus UV (350 nm, 2 min), replicate 3) was 0.92.

In the case of “Qp → Sp: Qp mutant L349Q, E355Q, mimicking Sp (DTENIRFVFAAVKDTIQQLNLKQYNLV)”, the “V1A-R G-protein activation in words” value (V1A-R with purified Gαq) is reported as “increased cognate (Qp → Sp > Qp)” and the “V1A-R IP1 levels in words” value (V1A-R SPASM sensors) is reported as “increased cognate (Qp → Sp > Qp)”.

— article PMC6811539, “Minute-scale persistence of a GPCR conformation state triggered by non-cognate G protein interactions primes signaling” (Nature Communications, 2019)
